US20260240844A1, “INHIBITORS OF CHD1L AND USES THEREOF” (The Regents of the University of Colorado, a body corporate, priority 2023, published 2026)
Like-named read-outs stand apart in the source and are kept apart here.

What was measured:
[1] = molecular target: T1, CHD1L (Homo sapiens, UniProt Q86WJ1); experiment: CHD1L trapping (in situ subcellular fractionation, immunofluorescence); assay type: cell-based; conditions: single agent; SUM149PT + 0.01% MMS 4 h; BC and CRC cells
T1 sequence (Q86WJ1 1-897): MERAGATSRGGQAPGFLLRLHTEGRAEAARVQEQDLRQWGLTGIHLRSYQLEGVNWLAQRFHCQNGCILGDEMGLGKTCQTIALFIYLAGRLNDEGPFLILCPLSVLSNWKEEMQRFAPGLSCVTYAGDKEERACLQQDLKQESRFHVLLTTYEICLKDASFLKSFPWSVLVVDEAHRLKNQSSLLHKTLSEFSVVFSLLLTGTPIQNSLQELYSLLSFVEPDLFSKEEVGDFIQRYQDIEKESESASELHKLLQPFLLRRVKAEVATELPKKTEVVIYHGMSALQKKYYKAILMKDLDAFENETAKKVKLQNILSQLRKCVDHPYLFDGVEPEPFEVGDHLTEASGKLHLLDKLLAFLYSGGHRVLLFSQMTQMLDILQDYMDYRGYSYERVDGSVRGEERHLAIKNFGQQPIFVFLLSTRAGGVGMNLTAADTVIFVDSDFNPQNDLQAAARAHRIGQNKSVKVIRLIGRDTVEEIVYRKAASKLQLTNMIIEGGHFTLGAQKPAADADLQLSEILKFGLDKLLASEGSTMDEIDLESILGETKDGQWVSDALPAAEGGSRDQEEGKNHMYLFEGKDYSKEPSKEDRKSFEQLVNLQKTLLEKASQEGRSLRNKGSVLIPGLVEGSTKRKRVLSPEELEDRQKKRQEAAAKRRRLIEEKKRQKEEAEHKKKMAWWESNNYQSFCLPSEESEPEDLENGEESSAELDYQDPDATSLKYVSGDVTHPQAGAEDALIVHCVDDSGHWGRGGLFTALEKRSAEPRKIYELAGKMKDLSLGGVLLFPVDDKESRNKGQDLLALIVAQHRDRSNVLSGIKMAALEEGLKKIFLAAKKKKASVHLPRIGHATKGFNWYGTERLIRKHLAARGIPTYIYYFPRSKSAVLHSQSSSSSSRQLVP
From the text: Other studies on the role of CHD1L used cell lines with knockdown or knockouts of the gene encoding for CHD1L and have never been able to study the result of its enzymatic inhibition.

[2] = test system: AIF in SUM149PT cells; experiment: AIF immunofluorescence in SUM149PT (SUM149) cells; assay type: cell-based
From the text: CHD1Li-mediated PAR translocation to the cytoplasm activates PARthanatos as a cell death mechanism. Parthanatos is a form a programmed cell death different from apoptosis and known to be mediated by PARP1 overactivation. The unique events occurring during parthanatos are: PARP1 rapid activation, accumulation of PAR and nuclear translocation of apoptosis inducing factor (AIF). Without being bound by any particular theory, accumulation of PAR in the cytoplasm caused by CHD1Li can also mediate parthanatos. To better understand the link between PAR translocation to the cytoplasm and cell death, immunofluorescence to measure the activation of caspase-3 and the subcellular localization of AIF after treatment with SOC drugs and Compound 6 in SUM49PT cells was used. […] Without being bound by any particular theory, this might be caused by the mitochondrial outer membrane permeabilization, which triggers release of mitochondrial proteins like AIF or cytochrome c, activating caspase-3 by its cleavage and leading to apoptosis. […] Moreover, when combining CHD1L inhibition with SOC drugs, the cell death mechanism shifts from apoptosis to parthanatos, evidenced by a significant increase in AIF nuclear translocation and decrease in activation of caspase-3 (FIG. 25D-E).
(§1) The ability of Compounds 12, 15 and 16 to localize AIF was tested in SUM149 (breast cancer) and MDA-MB-231 (TNBC) cell lines. A comparison of the relative distribution of AIF in nuclei (a) versus cytoplasm (b) in SUM149 cells and nuclei (c) versus cytoplasm (d) in MDA-MB-231 cells in the presence of 4 μM Compounds 12, 15 and 16 are shown in FIG. 28. […] Similarly, AIF concentration in the cytoplasm of MDA-MB-231 cells decreased by about 0.5 after administration with Compound 15. After treatment with Compound 16, the relative concentration of AIF in the nuclei of SUM149 cells increased by about 0.5-fold, and the concentration of AIF in the cytoplasm decreased by about 0.4-fold. In MDA-MB-231 cells, the relative concentration of AIF in the cytoplasm decreased by about 0.5-fold, while the concentration of AIF increased in the nuclei by about 0.1-fold.

[3] = test system: PAR in SUM149PT cells; experiment: PAR immunofluorescence (nuclear / cytoplasmic PAR); assay type: cell-based
From the text: Inhibition of CHD1L promotes PAR translocation to the cytoplasm. The main role of PARP1 during the DDR is to detect and signal the recruitment of repair machinery to the sites of DNA damage. For that, PARP1/2 catalyze PARylation, which is a pivotal […] protein modification, consisting of the addition of ADP-ribose units to the carboxyl group of acidic residues such as glutamate or aspartate on target proteins by using NAD^+ as substrate. CHD1L is one of the proteins that requires binding to these PAR chains for its activation and subsequent chromatin remodeling. Using immunofluorescence of PAR, the effect of PARPi and CHD1Li on PARylation in SUM149PT cells was investigated. […] In addition, the effect of doxorubicin on nuclear PARylation was reverted by CHD1L inhibition, causing an increase of PAR in the cytoplasm (FIG. 25A-C).

[4] = test system: SUM149PT tumor organoids; experiment: Tumor organoid cytotoxicity (CellTiter Glo 3D), SUM149PT; assay type: cell-based; conditions: for calculated mean synergy scores: MDA-MB-231 and SUM149PT; for Mean Synergy Score / IC50: SUM149PT; for IC50: Homo sapiens, read-out: IC50 docetaxel
Method: Tumor organoid culture—Cell lines were cultured as tumor organoids by seeding 2,000 to 5,000 cells/well into uncoated 96 well U-bottom Ultra Low Attachment Microplates (Corning) using their corresponding medium.
Luminescence was recorded using the EnVision plate reader (PerkinElmer) and values normalized to the controls using GraphPad Prism.

[5] = test system: MiaPaca2 cells; experiment: MiaPaca2 cell viability, combination with chemotherapy; assay type: cell-based; conditions: MiaPaca2 cells
From the text: The cell viability assays and Bliss synergy analyses are as described above in Examples 1-9 and 11-12.

[6] = test system: SW620 Parental cells; experiment: SW620 Parental cell viability, combination with chemotherapy; assay type: cell-based; conditions: SW620 cells
[7] = test system: HCT116 Parental cells; experiment: HCT116 Parental cell viability, combination with chemotherapy; assay type: cell-based; conditions: HCT116 cells
[8] = test system: Colo678 cells; experiment: Colo678 cell viability, combination with chemotherapy; assay type: cell-based; conditions: Colo678 cells
[9] = test system: MDA-MB-231 tumor organoids; experiment: Tumor organoid cytotoxicity, MDA-MB-231; assay type: cell-based; conditions: MDA-MB-231
Method: Tumor organoid culture—Cell lines were cultured as tumor organoids by seeding 2,000 to 5,000 cells/well into uncoated 96 well U-bottom Ultra Low Attachment Microplates (Corning) using their corresponding medium. Cell aggregation was then promoted by centrifugation of the plates for 15 min at 1,000 rpm followed by the addition of Matrigel (Corning) to a 2-5% final concentration. Tumor organoids were maintained under standard cell culture conditions for 72 h prior to drug treatment.
Organoids were then transferred to a white solid bottom 96 well plate and incubated with an equal volume of CellTiter Glo 3D reagent (Promega) for 45 min on a shaker at 400 rpm. Luminescence was recorded using the EnVision plate reader (PerkinElmer) and values normalized to the controls using GraphPad Prism.

[10] = test system: Colo679 cells; experiment: DDR biomarkers (pATM, RAD51, 53BP1, γ-H2AX) in Colo679 cells; assay type: cell-based; conditions: 4 μM
From the text: (§2) Etoposide was used as a control to show upregulation of DDR pathway biomarkers.

[11] = test system: SUM149 and MDA-MB-231 cells; experiment: DDR biomarkers in breast cancer cells; assay type: cell-based; conditions: 4 μM
From the text: as §2

[12] = test system: AIF in MDA-MB-231 cells; experiment: AIF localization in MDA-MB-231 cells; assay type: cell-based; conditions: 4 μM
Method: as §1

[13] = test system: SW948 tumor organoids; experiment: cells; conditions: SW948 tumor organoids; combined with Compound 6
Method: ATM is an important protein involved in the initial stages of the DNA damage response. […] ATM mutations are important markers being developed to identify metastatic CRC (mCRC) patients that may be sensitive to DNA damaging chemotherapy.
Synergy was assessed using the Bliss model.

[14] = SUM149PT cells, single agent, 18 h
[15] = SUM149PT tumor organoids, combined with Compound 6
[16] = Compound 13 combined with Olaparib
[17] = Compound 13 combined with doxorubicin

CCc1cc2ncc(CN3CCN(c4ccc(C(=O)NC)nc4)CC3)cc2[nH]c1=O [AZD5305]
CHD1L trapping onto chromatin/nucleosomes [1]: did not show CHD1L trapping | cytoplasmic AIF [2, 14]: increase in the AIF intensity in the cytoplasm | nuclear AIF [2, 14]: no translocation of this protein to the nucleus | nuclear PAR (PARylation) ([3]; SUM149PT cells, single agent, 4 h): inhibition of nuclear PARylation | improvement of IC50 potency [4, 15]: 2.7 fold

Cc1cc(Nc2ccc(NC(=O)Cc3c[nH]c4cc(Cl)ccc34)cc2)nc(N2CCCC2)n1 [Compound 7, 2-(6-chloro-1H-indol-3-yl)-N-(4-((6-methyl-2-(pyrrolidin-1-yl)pyrimidin-4-yl)amino)phenyl)acetamide]
calculated mean synergy score ([5]; combined with 5-FU): about 25 | calculated mean synergy score ([5]; combined with SN-38): about 24.5

Cc1cc(Nc2ccc(NC(=O)Cc3cc(Cl)nc4ccccc34)cc2)nc(N2CCCC2)n1 [Compound 8, 2-(2-chloroquinolin-4-yl)-N-(4-((6-methyl-2-(pyrrolidin-1-yl)pyrimidin-4-yl)amino)phenyl)acetamide]
calculated mean synergy score ([5]; combined with 5-FU): about 29.5 | calculated mean synergy score ([5]; combined with SN-38): about 26

Cc1cc(Nc2ccc(NC(=O)/C=C/c3cc(Br)cs3)cc2)nc(N2CCCC2)n1 [Compound 11, (E)-3-(4-bromothiophen-2-yl)-N-(4-((6-methyl-2-(pyrrolidin-1-yl)pyrimidin-4-yl)amino)phenyl)acrylamide]
calculated mean synergy score ([6]; 72 h, combined with SN-38): about 24 | calculated mean synergy score ([6]; combined with 5-FU): about 43 | calculated mean synergy score ([7]; 72 h, combined with SN-38): about 14 | calculated mean synergy score ([7]; combined with 5-FU): about 8

Cc1cc(Nc2ccc(NC(=O)c3cc(Br)cs3)cc2)nc(N2CCCC2)n1 [Compound 13, 4-bromo-N-(4-((6-methyl-2-(pyrrolidin-1-yl)pyrimidin-4-yl)amino)phenyl)thiophene-2-carboxamide]
calculated mean synergy score ([8]; 72 h, combined with SN-38): about 41 | calculated mean synergy score ([8]; combined with 5-FU): about 12 | Mean Synergy Score ([9]; Compound 13 combined with 5-FU): 23.62 | Mean Synergy Score [9, 16]: 40.44 | Mean Synergy Score [9, 17]: 23.62 | calculated mean synergy scores ([4]; all combinations with 5-FU or doxorubicin): at least 20 | calculated mean synergy scores ([4]; all combinations with Olaparib): at least 40 | Mean Synergy Score ([4]; Compound 13 combined with 5-FU): 23.62 | Mean Synergy Score [4, 16]: 69.46 | Mean Synergy Score [4, 17]: 42.74 | calculated mean synergy score ([5]; combined with 5-FU): about 57 | calculated mean synergy score ([5]; combined with SN-38): about 18

Cc1cc(Nc2ccc(NC(=O)c3cnc(Br)s3)cc2)nc(N2CCCC2)n1 [Compound 14, 2-bromo-N-(4-((6-methyl-2-(pyrrolidin-1-yl)pyrimidin-4-yl)amino)phenyl)thiazole-5-carboxamide]
calculated mean synergy score ([8]; 72 h, combined with SN-38): about 57 | calculated mean synergy score ([8]; combined with 5-FU): about 26 | amount of 53BP1 [10]: decrease the amount of 53BP1 | amount of pATM [10]: increased the amount of pATM | γ-H2AX concentrations [10]: decreased | amounts of γ-H2AX and 53BP1 [11]: overall decreases in the amounts of γ-H2AX and 53BP1

Cc1cc(Nc2ccc(NC(=O)Cc3ccc(Br)s3)cc2)nc(N2CCCC2)n1 [Compound 15, 2-(5-bromothiophen-2-yl)-N-(4-((6-methyl-2-(pyrrolidin-1-yl)pyrimidin-4-yl)amino)phenyl)acetamide]
decrease in AIF in the cytoplasm [12]: about 0.5 fold | decrease in AIF in the cytoplasm ([2]; SUM149 cells, 4 μM): about 0.5 fold | increase in AIF in the nucleus ([2]; SUM149 cells, 4 μM): about 0.5 fold

CC(=O)O[C@@]12CO[C@@H]1C[C@H](O)[C@@]1(C)C(=O)[C@H](O)C3=C(C)[C@@H](OC(=O)[C@H](O)[C@@H](NC(=O)OC(C)(C)C)c4ccccc4)C[C@@](O)([C@@H](OC(=O)c4ccccc4)[C@H]21)C3(C)C [docetaxel]
IC50 [4, 15]: 0.5 µM | IC50 ([4]; SUM149PT tumor organoids, docetaxel alone): 55 µM | increase in potency of the chemotherapy ([4]; SUM149PT BRCA1 mutant tumor organoids, + 1.9 μM Compound 6): 110 fold

O=C(O)C(=O)O.[NH-][C@@H]1CCCC[C@H]1[NH-].[Pt+2] [oxaliplatin]
increase in potency of the chemotherapy [13]: 20 fold

PDD00017273
nuclear PAR under CHD1L inhibition ([3]; cells pre-treated 2 hours with 1 μM PARG inhibitor before CHD1Li): kept the levels of nuclear PAR similar to control cells
